From patent US8697387B2, “Methods for identifying agents and their use for the prevention of restenosis” (DiscoverRx Corporation, priority 2006, dated 2014)
Counter-ions that a name gives are not always drawn. *1 amine or outer side, *2 acyl side, *3 side chain or, on linkers, in order; H or OH if unused. Where a SMILES comes first, the peptide text is derived from it. Bridges are numbered along the chain shown (N, C = ends). Roman numbers before positions name the chains, in order. [ ]: non-standard residue; d: D form. Actinocin(9to1) = Cc1c2oc3c(C)ccc(C(=O)[*:1])c3nc-2c(C(=O)[*:2])c(N)c1=O; NMeV = CN[C@H](C(=O)O)C(C)C; Sar = CNCC(=O)O

Key:
[1] = test system: BioMAP Systems (human primary cell-based assay systems: endothelial cells, smooth muscle cells, PBMC, fibroblasts); experiment: BioMAP Systems screen scored for desired anti-restenosis parameter modulation; conditions: for Total score for desired parameter modulation, Score (out of 45): 1 point per desired activity present across BioMAP systems of Table 2, paclitaxel average of 11 runs, rapamycin average of 13 runs
From the text: The BioMAP Systems that model the relevant biological processes (smooth muscle cell hyperplasia, tissue remodeling, inflammation etc, including the measurements of readout parameters listed in Table 1), and are used for screening are listed in Table 2. Each of the cells listed in Table 1 can be utilized in one or more of the systems described below. For example, smooth muscle cells are used in CASM3C; CASMNo; SM3C and SMNo systems. Such BioMap systems are generally primary human cell based assays. Compounds are screened in one or more such BioMap systems, usually in at least about two such systems, and may be screened in at least three, at least four, at least five, at least ten, and up to all of the assays set forth in Table 2.
These assays are scored according to their modulation of the selected readout parameters.
Human umbilical vein endothelial cells (HUVEC) were pooled from multiple donors, cultured according to standard methods, and plated into microtiter plates at passage 4. Human neonatal foreskin fibroblasts (HDF) from 3 donors were pooled and cultured according to standard methods. 24 hr before stimulation with cytokines, confluent HDF in microtitre plates were serum starved. Coronary artery endothelial cells (CAEC), coronary artery smooth muscle cells (CASMC) and umbilical artery smooth muscle cells (SMC) cultured according to standard methods. Peripheral blood mononuclear cells (PBMC) were prepared from buffy coats from normal human donors according to standard methods. Concentrations/amounts of agents added to confluent microtitre plates to build each system were as follows: cytokines (IL-1 beta, 1 ng/ml; TNF-alpha, 5 ng/ml; IFN-gamma, 20 ng/ml; TGF-beta, 5 ng/ml; IL-4, 5 ng/ml), activators (histamine, 10 microM; SAg, 20 ng/ml or LPS, 0.2 ng/ml), PBMC (7.5×10^4 cells/well).
Compounds were prepared in the solvent as directed, added 1 hr before stimulation of the cells, and were present during the 24 hr stimulation period for the measurement of parameters listed in Table 2. For proliferation, compounds added 1 hr before stimulation of the cells with cytokines, and were present during the 96 hr. If prepared in DMSO, the final concentration of solvent was 0.1% or less.
The levels of readout parameters were measured by ELISA. Briefly, microtiter plates are treated, blocked, and then incubated with primary antibodies or isotype control antibodies (0.01-0.5 microg/ml) for 1 hr. After washing, plates were incubated with a peroxidase-conjugated anti-mouse IgG secondary antibody or a biotin-conjugated anti-mouse IgG antibody for 1 hr followed by streptavidin-HRP for 30 min. Plates were washed and developed with TMB substrate and the absorbance (OD) was read at 450 nm (subtracting the background absorbance at 650 nm). Quantitation of TNF-alpha in the LPS system was done using a commercially available kit according to the manufacturer's directions. Proliferation of endothelial cells (HUVEC and CAEC), smooth muscle cels (SMC and CASMC), and PBMC (T cells) was quantitated by Alamar blue or SRB reduction.
Mean OD values for each parameter were calculated from triplicate samples per experiment. The mean value obtained for each parameter in a treated sample was then divided by the mean value from an appropriate control to generate a ratio. All ratios were then log10 transformed. 99% prediction envelopes (grey shading in Figures) were calculated for historical controls.

[2] = test system: BioMAP Systems cells (SRB total protein, PBMC viability, cell morphology); experiment: Toxicity assessments in BioMAP Systems (SRB, PI, visual)
Procedure: Adverse effects of compounds on cells were determined by (1) measuring alterations in total protein (Sulforodhamine B or SRB assay); (2) measuring the viability of peripheral blood mononuclear cells (incorporation of propidium iodide, PI); and (3) microscopic visualization. SRB was performed by staining cells with 0.1% sulforhodamine B after fixation with 10% TCA, and reading wells at 560 nm. PBMC viability was assessed by adding propidium iodide (10 microgram/ml) to PBMC that had been cultured for 24 hours in the presence of activators and measuring the percentage of cells that incorporated dye by flow cytometry after 10 minutes. Samples were assessed visually according to the following scheme: 2.0=cobblestone (unactivated phenotype); 1.0=activated (normal phenotype); 0.5=lacy or sparse; 0.375=rounded; 0.25=sparse and granular; 0.1=no cells in well.
Cellular toxicity in BioMAP Systems is indicated if the SRB parameter (sulforhodamine B, measure of total protein loss) is <−0.3, the PI parameter (propidium iodine, measure of lymphotoxicity) is <−0.1, and the Visual parameter (change in cell morphology) is <−0.6.

[3] = test system: smooth muscle cell proliferation relative to endothelial cell proliferation; experiment: Proliferation of smooth muscle cells relative to endothelial cells in BioMAP systems 3C, SM3C, CANo, CASMNO, CA3C, CASM3C; type: cell-based, human; conditions: all conditions, all doses tested, independent of source of primary cells
From the text: One can further refine the selection of drugs for the treatment of restenosis by measuring their relative effects at multiple doses on proliferation of smooth muscle cells and endothelial cells derived from different sources (umbilical cord or coronary artery), and under different growth conditions (proliferation driven by growth factors only, or in the presence of pro-inflammatory factors that are normally found at the restenotic site). Statistical analysis of cell proliferation in BioMAP systems 3C, SM3C, CANo, CASMNO, CA3C, and CASM3C listed in Table 1 was performed for candidate drugs 8-Azaguanine, Amodiaquin Dihydrochloride Dihydrate, Atovaquone, Ciclopirox, Cis-(Z)-Flupentixol Dihydrochloride, Clofilium Tosylate, Monobenzone, Primaquine Diphosphate, Securinine, Syrosingopine, Terconazole, and Trimethylcolchicinic Acid. […]
The levels of readout parameters were measured by ELISA. […] Plates were washed and developed with TMB substrate and the absorbance (OD) was read at 450 nm (subtracting the background absorbance at 650 nm). Quantitation of TNF-alpha in the LPS system was done using a commercially available kit according to the manufacturer's directions. Proliferation of endothelial cells (HUVEC and CAEC), smooth muscle cels (SMC and CASMC), and PBMC (T cells) was quantitated by Alamar blue or SRB reduction. […]

[4] = test system: neointimal hyperplasia after balloon vascular injury; conditions: rat; reported by Pan et al., 2003; cited from earlier work

| Molecule | Total score for desired parameter modulation, Score (out of 45) [1] | also measured |
| --- | --- | --- |
| Cc1cc(C2CCCCC2)n(O)c(=O)c1 [Ciclopirox Ethanolamine] | 20 | – |
| COc1cc2nc(N3CCN(C(=O)C4COc5ccccc5O4)CC3)nc(N)c2cc1OC (stereo not drawn) [Doxazosin Mesylate] | 22 | – |
| CCN(CC)Cc1cc(Nc2ccnc3cc(Cl)ccc23)ccc1O [Amodiaquin Dihydrochloride Dihydrate] | 23 | – |
| O=C(O)CCCc1ccc(N(CCCl)CCCl)cc1 [Chlorambucil] | 30 | – |
| O=C1C(O)=C([C@H]2CC[C@H](c3ccc(Cl)cc3)CC2)C(=O)c2ccccc21 [Atovaquone] | 22 | – |
| C[C@]12CC[C@@H]3c4ccc(O)cc4CC[C@H]3[C@@H]1CC[C@@H]2O [17beta-estradiol] | – | Dose showing signs of cellular toxicity ([2]; human): 10 µM; Doses at which inactive in BioMAP Systems (lower than) [1]: < 3.3 µM |
| Cl.Cl.OCCN1CCN(CC/C=C2/c3ccccc3Sc3ccc(C(F)(F)F)cc32)CC1 [Cis-(Z)-Flupentixol Dihydrochloride] | 33 | – |
| CC(C)N1CCN(c2ccc(OCC3COC(Cn4cncn4)(c4ccc(Cl)cc4Cl)O3)cc2)CC1 (stereo not drawn) [Terconazole] | 22 | – |
| C[C@@H]1C[C@H]2[C@@H]3CCC4=CC(=O)C=C[C@]4(C)[C@@]3(F)[C@@H](O)C[C@]2(C)[C@@]1(O)C(=O)CO [dexamethasone] | – | Signs of toxicity in BioMAP Systems [2]: no signs of toxicity |
| Nc1nc2nn[nH]c2c(=O)[nH]1 [Drug 8-Azaguanine, 8-Azaguanine] | 28 | – |
| Oc1ccc(OCc2ccccc2)cc1 [Monobenzene] | 24 | – |
| C=C(C)[C@@H]1CC[C@]2(CO)CC[C@]3(C)[C@H](CC[C@@H]4[C@@]5(C)CC[C@H](O)C(C)(C)[C@@H]5CC[C@]43C)[C@@H]12 [Betulin] | 31 | – |
| Clofilium Tosylate | 22 | – |
| CCOC(=O)Oc1c(OC)cc(C(=O)O[C@@H]2C[C@@H]3CN4CCc5c([nH]c6cc(OC)ccc56)[C@H]4C[C@@H]3[C@H](C(=O)OC)[C@H]2OC)cc1OC [Syrosingopine] | 22 | – |
| COC(=O)C1=C(C)NC(C)=C(C(=O)OC)C1c1ccccc1[N+](=O)[O-] [Nifedipine] | 28 | – |
| Cc1c2oc3c(C)ccc(C(=O)N[C@@H]4C(=O)N[C@H](C(C)C)C(=O)N5CCC[C@H]5C(=O)N(C)CC(=O)N(C)[C@@H](C(C)C)C(=O)O[C@@H]4C)c3nc-2c(C(=O)N[C@@H]2C(=O)N[C@H](C(C)C)C(=O)N3CCC[C@H]3C(=O)N(C)CC(=O)N(C)[C@@H](C(C)C)C(=O)O[C@@H]2C)c(N)c1=O [Actinomycin D] (I: T[dV]P[Sar][NMeV] / II: T[dV]P[Sar][NMeV]; ester I:1-I:C, II:1-II:C; linker I:N-II:N via Actinocin(9to1)) | – | Dose showing signs of cellular toxicity ([2]; BioMAP Systems): 0.004572 µM; Doses at which inactive in BioMAP Systems (lower than) [1]: < 0.0005 µM |
| CC(=O)N(O)CCCCCNC(=O)CCC(=O)N(O)CCCCCNC(=O)CCC(=O)N(O)CCCCCN [Deferoxamine Mesylate] | 26 | – |
| COc1cc2c(c(OC)c1OC)-c1ccc(O)c(=O)cc1C(N)CC2 (stereo not drawn) [Trimethylcolchicinic Acid] | 29 | Preferential effect on smooth muscle cell versus endothelial cell proliferation [3]: preferential effect on smooth muscle cells over endothelial cells |
| O=c1ccc2cc(O)c(O)cc2o1 [Esculetin] | 25 | Effect on neointimal hyperplasia after balloon vascular injury [4]: inhibit neointimal hyperplasia |
| O=C1C=C2C=C[C@@H]3C[C@@]2(O1)[C@H]1CCCCN31 [Securinine] | 28 | – |
| COc1cc(NC(C)CCCN)c2ncccc2c1 (stereo not drawn) [Primaquine Diphosphate] | 27 | – |
| CO[C@H]1C[C@@H]2CC[C@@H](C)[C@@](O)(O2)C(=O)C(=O)N2CCCC[C@H]2C(=O)O[C@H]([C@H](C)C[C@@H]2CC[C@@H](O)[C@H](OC)C2)CC(=O)[C@H](C)/C=C(\C)[C@@H](O)[C@@H](OC)C(=O)[C@H](C)C[C@H](C)/C=C/C=C/C=C/1C [Rapamycin] | 24 ± 1 | Signs of toxicity in BioMAP Systems [2]: no signs of toxicity |
| CC(=O)O[C@H]1C(=O)[C@@]2(C)[C@H]([C@H](OC(=O)c3ccccc3)[C@]3(O)C[C@H](OC(=O)[C@H](O)[C@@H](NC(=O)c4ccccc4)c4ccccc4)C(C)=C1C3(C)C)[C@]1(OC(C)=O)CO[C@@H]1C[C@@H]2O [Paclitaxel] | 26 ± 2 | Signs of toxicity in BioMAP Systems [2]: no signs of toxicity; Activity over tested dose range in BioMAP Systems ([1]; tested doses): active over the entire dose range |
